pIC50: −log10 of the molar value.
Legend:
Assay type in all cases: cell-based, human
[1] = tested on: BE1 stem cells; assay: Small molecule screen and dose-response in 384-well plates, BE1 stem cells
[2] = tested on: normal esophageal stem cells; assay: Small molecule screen and dose-response in 384-well plates, normal esophageal stem cells
[3] = tested on: BE1 and normal esophageal stem cells; assay: Co-cultures of BE1 and normal esophageal stem cells; conditions: in combination with ponatinib
Description: FIGS. 6a-g. Drug development for precursor lesions. FIG. 6a. […] FIG. 6b. […] FIG. 6c. Dose-response curves of candidate drug (CEP-18770). FIG. 6d. […] FIG. 6e. […] FIG. 6f. […] FIG. 6g.
Small molecule screens against precursor stem cells. Given that Barrett's esophagus is an essential precursor for EAC, the inventors adapted BE1 stem cells to high-throughput screening platforms to identify proof-of-concept leads for preemptive therapies.

Row | Structure (SMILES) | Growth of BE1 stem cells ([1]; single agent) | Growth of normal esophageal stem cells ([2]; single agent, screens of stem cells from eight cases) | pIC50 ([1]; in combination with ponatinib, read-out: IC50 for eliminating BE1 stem cells) | Impact on normal esophageal stem cells ([2]; in combination with ponatinib) | Effect on normal esophageal stem cells in co-culture ([3]; co-culture with BE1 stem cells) | Effect on BE1 cells in co-culture ([3]; co-culture with normal esophageal stem cells)
1 | Cc1ccc(C(=O)Nc2ccc(CN3CCN(C)CC3)c(C(F)(F)F)c2)cc1C#Cc1cnc2cccnn12 [ponatinib, 3-[2-(Imidazo[1,2-b]pyridazin-3-yl)ethynyl]-4-methyl-N-[4-(4-methylpiperazin-1-ylmethyl)-3-(trifluoromethyl)phenyl]benzamide] | marginally inhibiting the growth | best of these esophageal stem cell “promoters” | – | – | – | –
2 | CN[C@@H](C)C(=O)N[C@H]1CCCC[C@H]2CC[C@@H](C(=O)N[C@@H](c3ccccc3)c3cn(CCCCc4ccc(CCCCn5cc([C@@H](NC(=O)[C@@H]6CC[C@@H]7CCCC[C@H](NC(=O)[C@H](C)NC)C(=O)N76)c6ccccc6)nn5)cc4)nn3)N2C1=O [SM-164] | – | – | > 9.00 | minimal impact | promotes the expansion | selectively eliminates the BE1 cells

From US20250281624A1, “METHODS AND COMPOSITIONS FOR TREATING CHRONIC INFLAMMATORY INJURY, METAPLASIA, DYSPLASIA AND CANCERS OF EPITHELIAL TISSUES” (University of Houston System, priority 2021, published 2025)
